The values that follow come from publication PMC3189179, “Rapid Development of New Protein Biosensors Utilizing Peptides Obtained via Phage Display” (PLoS ONE, 2011).

Series [1] addresses T1, ALT (human liver) (Homo sapiens, UniProt P24298).
T1 construct: ALT (human liver) and lactate dehydrogenase (LDH) were obtained from Lee Biosolutions, Inc; purchased Lee Biosolutions, Inc. (St. Louis, Missouri); host or cells: human liver
T1 sequence (P24298 2-496 limits assumed): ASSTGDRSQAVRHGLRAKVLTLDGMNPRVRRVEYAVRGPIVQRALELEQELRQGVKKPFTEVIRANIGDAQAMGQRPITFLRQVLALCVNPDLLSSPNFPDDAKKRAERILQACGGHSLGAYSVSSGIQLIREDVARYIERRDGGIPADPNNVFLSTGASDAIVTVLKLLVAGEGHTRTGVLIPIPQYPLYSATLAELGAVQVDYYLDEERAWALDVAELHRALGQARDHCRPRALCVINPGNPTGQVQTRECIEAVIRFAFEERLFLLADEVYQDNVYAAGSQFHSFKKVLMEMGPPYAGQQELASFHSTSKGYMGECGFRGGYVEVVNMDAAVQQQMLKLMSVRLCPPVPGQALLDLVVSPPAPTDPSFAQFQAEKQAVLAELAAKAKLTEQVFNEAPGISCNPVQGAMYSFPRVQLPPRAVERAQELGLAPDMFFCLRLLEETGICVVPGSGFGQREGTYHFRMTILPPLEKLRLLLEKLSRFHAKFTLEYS
The series can be described thus: ELISA for phage clone binding to immobilized ALT. The settings on record: 10^5 to 10^11 pfu, triplicate, 405 nm, 1 hr room temperature. The procedure: To test whether or not the selected phage clones from the biopanning procedure could bind to ALT, ELISA assays were performed. Microplates were coated with ALT (2.6 µg/mL) overnight at 4°C, blocked with blocking buffer, and washed 6 times with TBST solution (containing 0.1% Tween 20). Varying amounts of amplified phage clones were added to each well and incubated for 1 hr at room temperature. After washing, HRP-conjugated anti-M13 monoclonal antibody (diluted 1∶5000 in blocking buffer) was added and incubated at room temperature for 1 hr. Following incubation and washing again with the same buffer, ABTS and H2O2 (30%, v/v) were added and the absorbance was measured after a 1 hr incubation with mild agitation at 405 nm with a microplate spectrophotometer (Molecular Devices, Sunnyvale, CA).
In order to estimate the apparent dissociation constant for the ALT5-8 clone, further ELISA experiments were performed with extended phage concentrations. The data were fit to a Langmuir isotherm using non-linear regression (SigmaPlot, San Jose, CA) and the Kd,app was determined.

The target of series [2] is T1, ALT (human liver). The series can be described thus: Biopanning of phage-displayed peptide library over immobilized ALT. The note with it: 12 phage clones after fifth round of biopanning against ALT. In kind it is binding. As to the method: ALT (2.6 µg/mL) was dissolved in NaHCO3 buffer (100 mM, pH 8.3) and transferred to the wells of polystyrene microplates. After overnight incubation with mild agitation at 4°C, the well surfaces were coated with ALT. The well surfaces were then blocked with blocking buffer (0.1 M NaHCO3 containing 2% BSA and 0.02% of NaN3) for 1 hr at 4°C, and washed 6 times with TBST (50 mM Tris-HCl pH 7.5, 150 mM NaCl, 0.1% Tween 20) to remove weakly bound ALT. […] Wells were washed 10 times with TBST to remove unbound phage. The bound phage were eluted with 100 µL of 0.2 M glycine-HCl (pH 2.2) and the elution was immediately neutralized with 15 µL Tris-HCl (1 M, pH 9.1) to prevent phage killing. The eluted phage were amplified in E. coli ER2738 and the phage were harvested by precipitation with NaCl/polyethylene glycol (20% (w/v) polyethylene glycol-8000 with 2.5 M NaCl). This biopanning process was repeated for five rounds. The concentration of Tween 20 in the washing step was increased from 0.1% in the first round of panning to 0.3% in the second round of panning and 0.5% in the final three rounds of panning. After each round of panning, the phage were titered using Luria-Bertani (LB) broth plates containing isopropyl β-D-thiogalactopyranoside (IPTG) and X-gal. After the fifth round of selection, twelve blue monocolonies were randomly picked and amplified for DNA sequencing.

In series [3] the target is T1, ALT (human liver). The series can be described thus: EIS detection of ALT with peptide-modified gold electrode. It counts as binding. The settings on record: biosensor made from the peptide coupled with EIS detection. As to the method: All electrochemical measurements were performed with a µAUTOLAB potentiostat (Type III, FRA2, Metrohm Autolab, Netherlands). A gold wire (dia. 1 mm) sealed in epoxy was used as a working electrode and a platinum mesh was used as a counter electrode. All potentials measured are reported versus a Ag/AgCl reference electrode. Both cyclic voltammetry and EIS measurements were conducted in a solution of 1 mM ferro/ferricyanide in 0.1 M sodium perchlorate.
CV and EIS were performed as previously described. Briefly, the gold electrodes were prepared in 0.1 mM peptide solution for 1 hr, followed by backfilling in 1 mM cysteine solution for 2 hr to obtain a Au-Pep-Cys electrode. The Au-Pep-Cys electrodes were incubated in ALT solution for 1 hr before CV and EIS measurements. After each electrode preparation step, the electrode is removed and placed into solutions of 1 mM ferro/ferricyanide in 0.1 M NaClO4for analysis. Therefore, all the electrochemical measurements were conducted in the ferro/ferricyanide solution which eliminates the effect of any potential viscosity differences between the sample solutions. CV experiments were performed at a potential scan rate of 100 mV/s. Impedance spectra were recorded over a frequency range of 0.1–10^5 Hz. […] The impedance was recorded and a Nyquist plot was obtained. […]

Series [4] concerns the target T1, ALT (human liver). The series can be described thus: Coupled enzyme assay (ALT/LDH, NADH depletion): peptide inhibition of ALT, bi-bi ping-pong fit with competitive inhibitor. It counts as biochemical. The procedure:
ALT enzyme kinetics were measured to determine the impact of the ALT5-8 peptide on the activity of the enzyme. Kinetic experiments were performed in a coupled assay where the pyruvate generated by ALT was reduced to lactate by LDH with the concomitant oxidation of NADH. The depletion of NADH was monitored by following its absorbance at 340 nm in UV-transparent microplates. […] The reactions were initiated by the addition of 330 U/L ALT and all measurements were made in triplicate. All stock solutions were prepared in 100 mM Tris-HCl buffer (pH 7.8), and all kinetic trials were conducted 300 µL at 37 °C. […] Free ALT5-8 peptide inhibitor (I) was added to the reactions at concentrations from 0–0.25 µM.

For series [5], the target named is T1, ALT (human liver). The series can be described thus: QCM binding of ALT to immobilized peptide. The note with it: ALT as compared to BSA and SA, 10 µg/mL each. An excerpt:
All reagents used were analytical grade or higher unless otherwise stated. Escherichia coli strain ER2738, a host for M13 phage, and a polyvalent M13 phage display kit (Ph.D.-12) which contained random 12-mer peptides were obtained from New England Biolabs (Ipswich, MA). ALT (human liver) and lactate dehydrogenase (LDH) were obtained from Lee Biosolutions, Inc. (St. Louis, Missouri). Horseradish peroxidase (HRP) conjugated anti-M13 monoclonal antibody was from GE Healthcare (Piscataway, NJ). Tween 20, 2,2′-Azino-bis(3-ethylbenzothiazoline-6-sulfonic acid) diammonium salt (ABTS), streptavidin (SA) from Streptomyces avidinii, bovine serum albumin (BSA), L-cysteine hydrochloride (98%) and all other chemicals were purchased from Sigma-Aldrich (St. Louis, MO). Polystyrene microplates were from Pierce Biotechnology (Rockford, IL). The ALT5-8 peptide modified with a C-terminal cysteine (sequence: […]) was synthesized (>90% purity) by Genscript (Piscataway, NJ). Quartz crystals (AT-cut, 5 MHz) with Au deposited on both sides were obtained from Inficon (East Syracuse, New York). Buffer solutions (pH = 7.3) containing 0.01 M sodium phosphate and 0.1 M NaCl were used to make all protein (1–10 µg/mL) and peptide (0.1 mM) solutions for the QCM and EIS measurements. All solutions were prepared using Milli-Q water. […]

The target in series [6] is T1, ALT (human liver). The series can be described thus: Uninhibited ALT enzyme kinetics (coupled ALT/LDH assay). It counts as biochemical. The note with it: absence of peptide, pH 7.8, 37 °C, triplicate, bi-bi ping-pong fit (Eqn. 1). As to the method: ALT enzyme kinetics were measured to determine the impact of the ALT5-8 peptide on the activity of the enzyme. Kinetic experiments were performed in a coupled assay where the pyruvate generated by ALT was reduced to lactate by LDH with the concomitant oxidation of NADH. The depletion of NADH was monitored by following its absorbance at 340 nm in UV-transparent microplates. […] Initial concentrations of pyridoxal 5′-phosphate, NADH, and LDH were 0.1 mM, 0.25 mM and 47 U/L respectively. The reactions were initiated by the addition of 330 U/L ALT and all measurements were made in triplicate. All stock solutions were prepared in 100 mM Tris-HCl buffer (pH 7.8), and all kinetic trials were conducted 300 µL at 37 °C.

Substrate in series [7]: C[C@H](N)C(=O)O
The series can be described thus: purified protein, by the assay type. The note with it: other: substrate of ALT, absence of peptide, pH 7.8, 37 °C, triplicate, bi-bi ping-pong fit (Eqn. 1).

Series [8] addresses T2, alanine aminotransferase (Homo sapiens, UniProt P24298).
T2 chain: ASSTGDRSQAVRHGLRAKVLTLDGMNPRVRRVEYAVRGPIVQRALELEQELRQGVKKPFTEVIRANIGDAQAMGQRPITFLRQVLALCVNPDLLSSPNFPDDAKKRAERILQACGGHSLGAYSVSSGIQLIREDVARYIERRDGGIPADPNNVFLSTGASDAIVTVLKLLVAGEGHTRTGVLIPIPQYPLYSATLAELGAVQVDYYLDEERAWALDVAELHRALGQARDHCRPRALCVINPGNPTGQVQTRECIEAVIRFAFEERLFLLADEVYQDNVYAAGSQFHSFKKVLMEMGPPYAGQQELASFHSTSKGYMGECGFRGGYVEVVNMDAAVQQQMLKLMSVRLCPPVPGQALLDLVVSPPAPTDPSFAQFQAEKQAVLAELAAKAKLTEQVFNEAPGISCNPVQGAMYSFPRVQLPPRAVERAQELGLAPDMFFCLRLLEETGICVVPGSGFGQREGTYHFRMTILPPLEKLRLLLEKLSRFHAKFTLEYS
The series can be described thus: enzyme inhibition kinetics.

In series [9] the target is T2, alanine aminotransferase. The series can be described thus: QCM.
For series [10], the target named is T2, alanine aminotransferase. The series can be described thus: phage ELISA.

Take LETEWDSLWYAP [ALT5-9]: the “affinity of phage clone for immobilized ALT (in words)” value (shortened to “affinity of phage clone”) at ALT (human liver) [1] is given as “low affinity for ALT similar to that of the M13 control phage”. Further, at ALT (human liver) [2], the “Frequency of sequence among sequenced clones” value (shortened to “Frequency”) is 1/12.

In the case of SNNLYPQRAVST [ALT4-3], the “affinity of phage clone” value on ALT (human liver) [1] is given as “low affinity for ALT similar to that of the M13 control phage”. Further, the “Frequency” value at ALT (human liver) [2] is listed as 1/12.

In the case of “WHWRNPDFWYLK [ALT5-8, 12-mer peptide selected by M13 phage display over ALT; tested on phage and as free peptide]”, the “limit of detection (LOD), EIS” value at ALT (human liver) [3] turned out to be 0.092 µg/mL. Further, on ALT (human liver) [1], the “affinity of phage clone” value is reported as “dose-dependent affinity for the ALT protein”. Also, the mode of inhibition result at ALT (human liver) [4] (Lineweaver-Burk plots, with respect to alanine) is “competitive inhibitor”. The “residual enzyme activity with peptide (in words)” value on ALT (human liver) [4] (peptide to protein ratio 2∶1) is “the enzyme was still quite active”. Moreover, the “selectivity (in words)” value at ALT (human liver) [5] is “selective for ALT as compared to BSA and SA”. The “Frequency” value at ALT (human liver) [2] is recorded as 10/12.

As to α-ketoglutarate [reference compound], the Km at ALT (human liver) [6] (substrate of ALT, read-out: Michaelis constant KM) is 90 ± 30 µM.

B1: ALT (human liver) (Homo sapiens) (protein)
chain: ASSTGDRSQAVRHGLRAKVLTLDGMNPRVRRVEYAVRGPIVQRALELEQELRQGVKKPFTEVIRANIGDAQAMGQRPITFLRQVLALCVNPDLLSSPNFPDDAKKRAERILQACGGHSLGAYSVSSGIQLIREDVARYIERRDGGIPADPNNVFLSTGASDAIVTVLKLLVAGEGHTRTGVLIPIPQYPLYSATLAELGAVQVDYYLDEERAWALDVAELHRALGQARDHCRPRALCVINPGNPTGQVQTRECIEAVIRFAFEERLFLLADEVYQDNVYAAGSQFHSFKKVLMEMGPPYAGQQELASFHSTSKGYMGECGFRGGYVEVVNMDAAVQQQMLKLMSVRLCPPVPGQALLDLVVSPPAPTDPSFAQFQAEKQAVLAELAAKAKLTEQVFNEAPGISCNPVQGAMYSFPRVQLPPRAVERAQELGLAPDMFFCLRLLEETGICVVPGSGFGQREGTYHFRMTILPPLEKLRLLLEKLSRFHAKFTLEYS
For B1, the Km in series [7] amounted to 8000 ± 900 µM. Also, the kcat with ALT (human liver) [6] stood at 5.8 ± 0.2 s⁻¹.

B2: ALT5-8 peptide (peptide)
chain: WHWRNPDFWYLK
Turning to B2, the affinity in the series with alanine aminotransferase [8] corresponds to a Ki of 71 nM.

B3: ALT5-8 peptide (C-terminal Cys) (peptide)
chain: WHWRNPDFWYLKC
modifications: immobilized on gold via C-terminal cysteine
B3 yielded a dissociation constant (Kd) with alanine aminotransferase [9] of 20.1 nM.

B4: ALT5-8 peptide (phage-displayed) (peptide)
chain: WHWRNPDFWYLK
modifications: displayed on M13 phage
In the case of B4, in the series with alanine aminotransferase [10], the Kd came out at 85 nM.
